For this experiment, the target named is T1, human metastin receptor hOT7T175 (Homo sapiens, UniProt Q969F8, L364H).
T1 construct: encoding the entire length of human metastin receptor hOT7T175; expressed in transfected cells; host or cells: CHO/dhFr- cells (ATCC #CRL-9096) stably transfected with pAKKO-hOT7T175; clone h175-16 was used as whole cells for FLIPR
Briefly: binding inhibiting activity: 125I-metastin (40-54) binding to cell membrane fraction of h175 KB34 cells. The note with it: room temperature 60 minutes, read-out: binding inhibiting activity, represented by the IC50 value. The procedure: cDNA fragments (SEQ ID NO: 2) encoding the entire length of human metastin receptor hOT7T175 were incorporated into expression vector pAKKO1.11H to produce animal cell expression plasmids pAKKO-hOT7T175. CHO/dhFr-cells (ATCC, #CRL-9096) were seeded onto 6 cm culture dishes (Becton Dickinson) at a density of 0.3×10^6 cells/dish, and cultured in the conditions of 48 hours, 37° C. and 5% CO2. 5 μg pAKKO-hOT7T175 plasmid DNA was transfected to the resultant cells by a known method (described in Example 3 of WO 00/24890) using the Cellphect Transfection Kit (Amersham, #27-9268-01). The DNA-transfected cells were cultured in the Dulbecco's modified Eagle medium (DMEM) (Sigma, #D6046) containing 10% dialyzed FBS (Biowest, #S180D), 1× Non-Essential Amino Acid (Invitrogen, #11140-050) and 50 μg/ml Gentamycin (Invitrogen, #15750-060; and cell strains stably expressing the plasmid genes were selected. The obtained 41 clones were treated with the FLIPR assay (in accordance with the method described in Example 3 of WO 00/24890), and the reactivity to the human metastin […] (Nos. 40 to 54 of the human metastin sequence; Peptide Institute, Inc., #4389-v) was evaluated. In the end, h175 KB34 cell strains were selected. By substantially the same method, h175-16 cell strains were also produced.
The h175 KB34 cells were cultured to be on the stage of 40-50% confluency using a cell factory (Nunc, #164327), and then cells were recovered in the following method.
First, the medium was disposed, and the cells were washed twice with 200 ml EDTA/PBS(−). Another 200 ml of EDTA/PBS(−) was added, and the cells were kept still for 20 minutes at room temperature until being peeled off. The cells were recovered into four 50 ml tubes (Becton Dickinson, #352070), and centrifuged (2,000 rpm, 10 min., 4° C.) by a reduced performance centrifuge (TOMY, RL-101). The supernatant was disposed, and the pellets in the four tubes were each suspended with 10 ml EDTA/PBS(−) and collected into one tube (Becton Dickinson, #352070). The pellet was further centrifuged (2,000 rpm, 10 min., 4° C.). The resultant pellet was suspended with 20 ml ice-cooled homogenizer buffer [10 mM NaHCO3, 2 mM EGTA, 0.2 mM magnesium acetate, 10 μg/ml Leupeptin (Peptide Institute, Inc., #4041), 10 μg/ml E-64 (Peptide Institute, Inc., # 4096), 100 μg/ml o-phenanthroline (Dojindo Laboratories), 90 μg/ml PMSF (Wako Pure Chemical Industries, Ltd.), 10 μg/ml Pepstatin A (Peptide Institute, Inc., #4397), pH7.3]. The cell suspension was homogenized 3 times, each for 30 seconds, using a Polytron homogenizer. The resultant homogenate was centrifuged (2,500 rpm, 10 min, 4° C.) using a high performance refrigerated centrifuge (Hitachi, Ltd., CR26H). The supernatant was recovered into a super-centrifuge tube, and super-centrifuged (30,000 rpm, 60 min, 4° C.) using a super-centrifuge (Hitachi, Ltd., SCP70H). 3 ml homogenizer buffer was added to the resultant pellet, and the pellet was suspended by pipetting. 3 ml glycerol (Wako Pure Chemical Industries, Ltd.) was added to the resultant suspension and diluted 2-folds. The resultant substance was used as a cell membrane fraction of the h175 KB34 cells. Each […] of the membrane fraction was put into a 1.5 ml tube (Eppendorf, #0030120.086), stored in a freezer (−30 C) so as not to be frozen, and used for a binding assay.
An assay buffer was prepared on the day of the test by adding, to each 100 ml of an assay basic buffer [20 mM Tris, 2.5 mM Magnesium Acetate, 2 mM EGTA, pH 7.4], 1 mg Leupeptin (Peptide Institute, Inc., 4041), 1 mg E-64 (Peptide Institute, Inc., 4096), 10 mg o-phenanthroline (Dojindo Laboratories), 9 mg PMSF (Wako Pure Chemical Industries, Ltd.) and 1 mg Pepstatin A (Peptide Institute, Inc., 4397). The prepared assay buffer was stored at 4° C. until being used. When the measurement was to be performed with no BSA, the above-described assay buffer was used. […]

By pIC50 is commonly meant −log10 of the IC50, conventionally taken in molar units.

pIC50: −log10 of the molar value. Counter-ions that a name gives are not always drawn.

T1 sequence (Q969F8 whole entry L364H): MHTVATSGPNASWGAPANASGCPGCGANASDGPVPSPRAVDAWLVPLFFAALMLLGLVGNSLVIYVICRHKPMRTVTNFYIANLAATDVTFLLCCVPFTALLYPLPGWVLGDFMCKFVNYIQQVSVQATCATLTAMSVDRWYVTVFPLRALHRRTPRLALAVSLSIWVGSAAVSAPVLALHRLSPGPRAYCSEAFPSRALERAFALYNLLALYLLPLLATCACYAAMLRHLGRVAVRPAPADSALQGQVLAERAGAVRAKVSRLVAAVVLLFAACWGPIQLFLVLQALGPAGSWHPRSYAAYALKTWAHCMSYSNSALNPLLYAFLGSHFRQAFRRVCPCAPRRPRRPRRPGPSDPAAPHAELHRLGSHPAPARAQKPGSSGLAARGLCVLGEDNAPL

In the case of `CCN1CCN(c2cccc(-c3cc(-c4ccc(F)cc4O)nc(NC(=O)c4ccco4)c3C#N)c2)CC1` [Example 330, N-[3-cyano-4-[3-(4-ethylpiperazin-1-yl)phenyl]-6-(4-fluoro-2-hydroxyphenyl)pyridin-2-yl]-2-furamide hydrochloride], the pIC50 is no less than 5.00.
To `N#Cc1c(-c2cccc(NC(=O)CCN)c2)cc(-c2ccccc2O)nc1NC(=O)c1ccccc1` [Example 31, N-[4-(3-(β-alanylamino)phenyl)-3-cyano-6-(2-hydroxyphenyl)pyridin-2-yl]benzamide trifluoroacetate] belongs no less than 5.00.
As to `CNCCC(=O)Nc1cccc(-c2cc(-c3ccc(F)cc3O)nc(NC(=O)c3ccco3)c2C#N)c1` [Example 313, N-(3-cyano-6-(4-fluoro-2-hydroxyphenyl)-4-{3-[(N-methyl-β-alanyl)amino]phenyl}pyridin-2-yl)-2-furamide hydrochloride], the pIC50 is no less than 5.00.
Consider `CCN(CC)CCN(CC)c1cccc(-c2cc(-c3ccc(F)cc3O)nc(NC(=O)c3ccco3)c2C#N)c1` [Example 304, N-[3-cyano-4-{3-[[2-(diethylamino)ethyl] (ethyl)amino]phenyl}-6-(4-fluoro-2-hydroxyphenyl)pyridin-2-yl]-2-furamide dihydrochloride], for which the pIC50 was no less than 5.00.
On to `N#Cc1c(-c2cccc(NC(=O)[C@H](N)Cc3cnc[nH]3)c2)cc(-c2ccc(Cl)cc2O)nc1NC(=O)c1ccco1` [Example 253, N-{3-[6-(4-chloro-2-hydroxyphenyl)-3-cyano-2-(2-furoylamino)pyridin-4-yl]phenyl}-D-histidinamide dihydrochloride], for which the pIC50 was no less than 5.00.
`N#Cc1c(-c2cccc(NC(=O)CCN)c2)cc(-c2cc(Cl)ccc2O)nc1NC(=O)c1cccs1` [Example 46, N-{4-[3-(β-alanylamino)phenyl]-6-(5-chloro-2-hydroxyphenyl)-3-cyanopyridin-2-yl}thiophene-2-carboxamide trifluoroacetate]: the pIC50 was no less than 5.00.
For the compound `CN1CCN(Cc2cccc(-c3cc(-c4ccc(F)cc4O)nc(NC(=O)c4ccco4)c3C#N)c2)CC1` [Example 333, N-(3-cyano-6-(4-fluoro-2-hydroxyphenyl)-4-{3-[(4-methylpiperazin-1-yl)methyl]phenyl}pyridin-2-yl)-2-furamide dihydrochloride], the pIC50 is no less than 5.00.
In the case of `N#Cc1c(-c2cccc(NC(=O)C[C@H]3CCCN3)c2)cc(-c2ccc(F)cc2O)nc1NC(=O)c1ccco1` [Example 314, N-[3-cyano-6-(4-fluoro-2-hydroxyphenyl)-4-(3-{[(2R)-pyrrolidin-2-ylacetyl]amino}phenyl)pyridin-2-yl]-2-furamide hydrochloride], the pIC50 was no less than 5.00.
As for `N#Cc1c(N2CCCC(C(=O)NCCN)C2)cc(-c2ccccc2O)nc1NC(=O)c1ccco1` (stereo not drawn) [Example 288, N-(2-aminoethyl)-1-[3-cyano-2-(2-furoylamino)-6-(2-hydroxyphenyl)pyridin-4-yl]piperidine-3-carboxamide hydrochloride], the pIC50 was no less than 5.00.
For `Cl.N#Cc1c(-c2cccc(NC(=O)CC3CCCCN3)c2)cc(-c2ccc(F)cc2O)nc1NC(=O)c1ccco1` (stereo not drawn) [Example 290, hydrochloride], the pIC50 was no less than 5.00.
For `COc1ccc(C(=O)Nc2nc(-c3ccc(Cl)cc3O)cc(-c3cccc(NC(=O)CCN)c3)c2C#N)c(OC)c1` [Example 255, N-[4-[3-(β-alanylamino)phenyl]-6-(4-chloro-2-hydroxyphenyl)-3-cyanopyridin-2-yl]-2,4-dimethoxybenzamide dihydrochloride], the pIC50 was no less than 5.00.
Consider `COc1c(NC(=O)CCN)cccc1-c1cc(-c2ccccc2O)nc(NC(=O)c2ccco2)c1C#N` [Example 276, N-[4-[3-(β-alanylamino)-2-methoxyphenyl]-3-cyano-6-(2-hydroxyphenyl)pyridin-2-yl]-2-furamide hydrochloride], for which the pIC50 was no less than 5.00.
To `N#Cc1c(-c2cccc(NC(=O)CCN)c2)cc(-c2ccc(Cl)cc2O)nc1NC(=O)c1ccoc1` [Example 254, N-[4-[3-(β-alanylamino)phenyl]-6-(4-chloro-2-hydroxyphenyl)-3-cyanopyridin-2-yl]-3-furamide hydrochloride] belongs no less than 5.00; to `CCN1CCN(Cc2cccc(-c3cc(-c4ccc(F)cc4O)nc(NC(=O)c4ccco4)c3C#N)c2)CC1` [Example 334, N-[3-cyano-4-{3-[(4-ethylpiperazin-1-yl)methyl]phenyl}-6-(4-fluoro-2-hydroxyphenyl)pyridin-2-yl]-2-furamide dihydrochloride], no less than 5.00.
Regarding `CN(C(=O)CN)c1cccc(-c2cc(-c3ccccc3O)nc(NC(=O)c3cccs3)c2C#N)c1` [Example 41, N-[3-cyano-4-{3-[glycyl(methyl)amino]phenyl}-6-(2-hydroxyphenyl)pyridin-2-yl]thiophene-2-carboxamide dihydrochloride], the pIC50 was no less than 5.00.
As for `N#Cc1c(-c2cccc(NC(=O)[C@@H](N)Cc3cnc[nH]3)c2)cc(-c2ccc(Cl)cc2O)nc1NC(=O)c1ccco1` [Example 243, N-{3-[6-(4-chloro-2-hydroxyphenyl)-3-cyano-2-(2-furoylamino)pyridin-4-yl]phenyl}-L-histidinamide dihydrochloride], the pIC50 was no less than 5.00.
As to `N#Cc1c(-c2cccc(NC(=O)CCN)c2)cc(-c2ccc(Cl)cc2O)nc1NC(=O)c1cccs1` [Example 56, N-{4-[3-(β-alanylamino)phenyl]-6-(4-chloro-2-hydroxyphenyl)-3-cyanopyridin-2-yl}thiophene-2-carboxamide trifluoroacetate], the pIC50 is no less than 5.00.
Regarding `COc1ccc(-c2cc(-c3cccc(NC(=O)CCN)c3)c(C#N)c(NC(=O)c3ccccc3)n2)c(O)c1` [Example 50, N-{4-[3-(β-alanylamino)phenyl]-3-cyano-6-(2-hydroxy-4-methoxyphenyl)pyridin-2-yl}benzamide trifluoroacetate], the pIC50 is no less than 5.00.
Take `N#Cc1c(-c2cccc(CN3CCNCC3)c2)cc(-c2ccc(F)cc2O)nc1NC(=O)c1ccco1` [Example 325, N-{3-cyano-6-(4-fluoro-2-hydroxyphenyl)-4-[3-(piperazine-1-ylmethyl)phenyl]pyridin-2-yl}-2-furamide ditrifluoroacetic acid]: the negative logarithm of the IC50 (pIC50) was no less than 5.00.
Turning to `N#Cc1c(-c2cccc(NC(=O)CCN)c2)cc(-c2ccc(Cl)cc2O)nc1NC(=O)c1ccccc1` [Example 51, N-{4-[3-(β-alanylamino)phenyl]-6-(4-chloro-2-hydroxyphenyl)-3-cyanopyridin-2-yl}benzamide trifluoroacetate], the pIC50 was no less than 5.00.
As to `N#Cc1c(-c2cccc(CN3CCCNCC3)c2)cc(-c2ccc(F)cc2O)nc1NC(=O)c1ccco1` [Example 335, N-[3-cyano-4-[3-(1,4-diazepan-1-ylmethyl)phenyl]-6-(4-fluoro-2-hydroxyphenyl)pyridin-2-yl]-2-furamide dihydrochloride], the pIC50 was no less than 5.00.

The record behind these values is patent publication US20090156646A1, “PYRIDYLPHENOL COMPOUND AND USE THEREOF” (TAKEDA PHARMACEUTICAL COMPANY LIMITED, priority 2005, published 2009).
